Experimental data: patent publication US12377095B2, “Use of ligustrazine nitrone derivatives in treatment and prevention of diabetic complication diseases” (QINGDAO HAILAN PHARMACEUTICALS CO., LTD., priority 2019, dated 2025)

Tests used:
[1] = test system: STZ-induced DKD rats; assay: Body weight, water intake and food intake of STZ-induced DKD rats; format: in vivo, rat
Description: SD rats (200±10 g) were used as model animals, which were fasted for 12 h before injection. STZ was dissolved in citrate buffer at 1% concentration, and rats were fasted and intraperitoneally injected with 55 mg/kg STZ and placed in the cage, the rats being ensured with adequate water intake for 24 h. STZ injections need to be fast and complete within 10 minutes of injection. The normal control group was injected with an equal volume of pH 4.5 citric acid-sodium citrate buffer. The state of the animals (multiple drinking and polyuria) was observed. After 3 weeks of STZ injection, blood was collected from the tail vein, and fasting blood glucose ≥16.7 mmol/L was measured as the standard for diabetic nephropathy in rats.
DKD rats were randomly assigned to 6 groups and given with different drugs. After 6 weeks of administration, the experiment was terminated and the protective effect of the drug on DKD rats was observed.
The general condition and body weight changes after rat modeling were observed weekly. The general conditions include the activity, mental state, coat color, diet, water intake and urine volume of the rats. The amount of water and the amount of feed were recorded weekly.

[2] = test system: diabetic neuropathy model rats; assay: Mechanical pain threshold (von Frey) in diabetic neuropathy model rats; format: in vivo, rat; settings: TBN 30 mg/kg twice a day
Description: Modeling method: STZ was weighed and transferred to a centrifuge tube, wrapped with aluminum foil, kept away from light, and stored at −20° C. STZ sodium citrate solution is prepared when it is in need to use. The rats were fasted without water for 12 hours before injection. After weighing, the rats were injected with 55 mg/kg STZ intraperitoneally (STZ needs to be injected quickly, and the injection was completed within 10 minutes), and then returned to the cage to ensure that the rats had sufficient drinking water for 24 hours. Rats were injected with an equal volume of citrate buffer (pH 4.5). Four weeks after STZ injection, blood was collected from the tail vein, and the rats with blood glucose less than 16.7 mmol/L were eliminated; the taillick threshold temperature was increased, and the mechanical withdrawal threshold (MWT) was decreased, as the standard of a successful DPN model.
The animals were randomly divided into 3 groups (n=7), namely the normal control group, the model group, and the TBN (30 mg/kg) group. The normal group and the model group were injected with an equal volume of normal saline, and TBN was administered twice a day (fixed at 9:00-10:00 am and 3:00-4:00 pm), continuously for 4 weeks.
Experiment for detecting mechanical pain threshold: In a quiet environment, the rats were individually placed in a porous steel wire cage. […]

[3] = test system: STZ-induced DKD rats; assay: Serum iron content of STZ-induced DKD rats; format: in vivo, rat
Description: Before the injection, the rats were fasted for 12 hours without water. After weighing, the rats were injected with 55 mg/kg STZ intraperitoneally (STZ needs to be injected quickly, and the injection was completed within 10 minutes), and then returned to the cage to ensure that the rats had sufficient drinking water for 24 hours. Rats were injected with an equal volume of citrate buffer (pH 4.5). After STZ injection for 3 weeks, blood was collected from the tail vein, and blood glucose ≥16.7 mmol/L was used as the criteria for the standard of the rats.
The route of administration is intragastric administration. TBN was administered twice a day (fixed at 9:00-10:00 am and 3:00-4:00 pm), and Losartan was administered once a day (fixed at 9:00-10:00 am) continuously for 6 weeks.
At the end of the experiment, after rats were anesthetized, blood was taken from the abdominal aorta. After standing for 1 hour, the rats were centrifuged at 3000 rpm for 10 minutes and stored in aliquots at −80° C. An automatic biochemical analyzer was used to detect the content of iron ions in the serum.

[4] = test system: db/db mice; assay: Electron microscopy of kidney tissue in db/db mice; format: in vivo, mouse
From the text: db/db mice are congenital obese type 2 DKD mice with spontaneous mutations in the leptin receptor (Leptin receptor, Lepr) due to a point mutation in the leptin receptor gene GT located on chromosome 4. The course of polyphagia, polyuria, diabetes and hyperglycemia is similar to that of humans, and it is currently the most widely used type 2 spontaneous animal model of DKD. The db/db mice have a series of complications with the aggravation of diabetes. The main pathological changes of renal tissue are the expansion of the glomerular mesangial interstitium, the thickening of the glomerular basement membrane, and the excessive accumulation of extracellular matrix. However, the glomerular mesangium of db/db mice changes relatively slowly, and the glomerular mesangium will not be dissolved or nodular glomerulosclerosis, and there is no progressive renal insufficiency.
Six-week-old db/db mice were purchased, and start the administration after adaptive feeding for 1 week (i.e., 7-week-old). TBN is administered twice a day (fixed by starting from 9:00-10:00 am and 3:00-4:00 pm, with an interval of 6 hours), and the positive control drug Losartan was administered once a day (fixed at 9:00-10:00 am) for 6 weeks.
After the mice were executed, the renal cortex was quickly taken with sharp blade (performed on ice); fixed with 2.5% glutaraldehyde (pH 7.4) at 4° C. for 6 h; then fixed for 2 h in a stationary liquid having 1:1 of 0.2 mmol/L PBS and 2% osmic acid, and dehydrated with gradient acetone at 4° C., 10 min for each of 50%, 70%, 90% acetone, then dehydrated with 100% acetone at room temperature twice, each time 15 min; in 1:1 acetone and Epon812 epoxy resin embedded mixed liquid, soaked at room temperature for 30 min; then dipped through the pure furnishings overnight, the embedding agent was made enveloping into tissue blocks completely to replace the dehydrating agent; the samples were embedded in the embedder for ultra-thin slicing, placed at 35° C. for 12 h; placed at 45° C. for 12 h; placed at 60° C. for 48 h; placed in a 37° C. oven for 36 h, in a 60° C. oven for 36 h; 1.5 μm semi-slice was prepared with an ultra-thin slicer; positioning under optical microscope, a trapeter having a top area of about 1 mm^2 was shaped to prepare 60-70 nm thick ultra-thin slices; dyed in dark with acetate hydroxide liquid for 10 min, and dyed in lead-stained citrate for 10 min.

## Cc1nc(C)c(/C=[N+](\[O-])C(C)(C)C)nc1C [TBN]
[1]; STZ-induced diabetic nephropathy rats, FIG. 1a
  body weight: no effect
[1]; vs model group, FIG. 1b
  water intake: significantly lower
[1]; vs model group, FIG. 1c
  food intake: significantly lower
[2]; 2 weeks after administration (6 weeks after STZ)
  mechanical pain threshold vs model group: no statistically significant difference
[2]; 4 weeks after administration (8 weeks after STZ), P<0.05
  mechanical pain threshold vs model group: increased
[3]; TBN high dose group, P<0.05 vs Vehicle
  increase in serum iron content: the most significant
[3]; each administration group of TBN (10, 30, 60 mg/kg), dose-dependent
  serum iron content: increased
[4]; 10 mg/kg
  podocyte fusion: slight podocyte fusion
  proliferation of the glomerular membrane: no significant proliferation
[4]; 10 mg/kg, 6 weeks (TBN P<0.05; Losartan P<0.01)
  thickness of the glomerular base film: decrease
[4]; 30 mg/kg
  podocyte fusion: podocyte fusion in small area
  proliferation of the glomerular measuring membrane: no significant proliferation
[4]; 30 mg/kg, P<0.01 vs db/db
  thickness of the glomerular base film: significantly reduced
[4]; 60 mg/kg
  podocyte fusion: no obvious segmental fusion
  proliferation of glomerular membranes: no significant proliferation
[4]; 60 mg/kg, P<0.01 vs db/db
  thickness of the glomerular base film: significantly reduced
